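Growth conditions: 96-well plates. Treatment: test compound, 48 hours, 5 concentrations. Analysis: linear interpolation between bracketing concentrations; unreached endpoints set to highest concentration. The concentration for 50% growth inhibition is given as GI50. TGI: total growth inhibition.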
Tests used:
Test in all cases: NCI-60 cell line screen, 48 h
786-0 renal = tested on: 786-0 renal
A498 renal = tested on: A498 renal
A549 NSCLC = tested on: A549 NSCLC
ACHN renal = tested on: ACHN renal
BT-549 breast = tested on: BT-549 breast
CAKI-1 renal = tested on: CAKI-1 renal
CCRF-CEM leukemia = tested on: CCRF-CEM leukemia
COLO 205 colon = tested on: COLO 205 colon
DU-145 prostate = tested on: DU-145 prostate
EKVX NSCLC = tested on: EKVX NSCLC
HCC-2998 colon = tested on: HCC-2998 colon
HCT-116 colon = tested on: HCT-116 colon
HCT-15 colon = tested on: HCT-15 colon
HL-60(TB) leukemia = tested on: HL-60(TB) leukemia
HOP-62 NSCLC = tested on: HOP-62 NSCLC
HOP-92 NSCLC = tested on: HOP-92 NSCLC
HS 578T breast = tested on: HS 578T breast
HT29 colon = tested on: HT29 colon
IGROV1 ovarian = tested on: IGROV1 ovarian
K-562 leukemia = tested on: K-562 leukemia
KM12 colon = tested on: KM12 colon
LOX IMVI melanoma = tested on: LOX IMVI melanoma
M14 melanoma = tested on: M14 melanoma
MALME-3M melanoma = tested on: MALME-3M melanoma
MCF7 breast = tested on: MCF7 breast
MDA-MB-231 breast = tested on: MDA-MB-231 breast
MDA-MB-435 = tested on: MDA-MB-435
MDA-MB-468 breast = tested on: MDA-MB-468 breast
MOLT-4 leukemia = tested on: MOLT-4 leukemia
NCI-H226 lung = tested on: NCI-H226 lung
NCI-H23 lung = tested on: NCI-H23 lung
NCI-H460 lung = tested on: NCI-H460 lung
NCI-H522 lung = tested on: NCI-H522 lung
OVCAR-3 ovarian = tested on: OVCAR-3 ovarian
OVCAR-4 ovarian = tested on: OVCAR-4 ovarian
OVCAR-5 ovarian = tested on: OVCAR-5 ovarian
OVCAR-8 ovarian = tested on: OVCAR-8 ovarian
PC-3 prostate = tested on: PC-3 prostate
RPMI-8226 leukemia = tested on: RPMI-8226 leukemia
RXF 393 renal = tested on: RXF 393 renal
SF-268 CNS = tested on: SF-268 CNS
SF-295 CNS = tested on: SF-295 CNS
SF-539 CNS = tested on: SF-539 CNS
SK-MEL-2 melanoma = tested on: SK-MEL-2 melanoma
SK-MEL-28 melanoma = tested on: SK-MEL-28 melanoma
SK-MEL-5 melanoma = tested on: SK-MEL-5 melanoma
SK-OV-3 ovarian = tested on: SK-OV-3 ovarian
SN12C renal = tested on: SN12C renal
SNB-19 CNS = tested on: SNB-19 CNS
SNB-75 CNS = tested on: SNB-75 CNS
SR leukemia = tested on: SR leukemia
SW-620 colon = tested on: SW-620 colon
T-47D breast = tested on: T-47D breast
TK-10 renal = tested on: TK-10 renal
U251 CNS = tested on: U251 CNS
UACC-257 melanoma = tested on: UACC-257 melanoma
UACC-62 melanoma = tested on: UACC-62 melanoma
UO-31 renal = tested on: UO-31 renal

For CSc1ccc(NC(=O)c2ccc3nnn(/C(C#N)=C/c4ccccn4)c3c2)cc1, the GI50 (786-0 renal) was 1570 nM, the TGI (786-0 renal) was 3.05 µM and the GI50 (A498 renal) was 9.47 µM. The TGI (A498 renal) was 21.4 µM, the GI50 (A549 NSCLC) was 2910 nM and the TGI (A549 NSCLC) was 11 µM. It also gave a GI50 (ACHN renal) of 1690 nM, a TGI (ACHN renal) of 3.06 µM and a GI50 (BT-549 breast) of 1610 nM. The TGI (BT-549 breast) was 3.13 µM, the GI50 (CAKI-1 renal) was 1200 nM and the TGI (CAKI-1 renal) was 2460 nM. It also gave a GI50 (CCRF-CEM leukemia) of 1380 nM, a TGI (CCRF-CEM leukemia) of 8.01 µM and a GI50 (COLO 205 colon) of 1110 nM. It also gave a TGI (COLO 205 colon) of 2390 nM, a GI50 (DU-145 prostate) of 1630 nM and a TGI (DU-145 prostate) of 2990 nM. For the same molecule, the GI50 (EKVX NSCLC) was 1590 nM, the TGI (EKVX NSCLC) was 3000 nM and the GI50 (HCC-2998 colon) was 1650 nM. It also gave a TGI (HCC-2998 colon) of 3.01 µM, a GI50 (HCT-116 colon) of 1740 nM and a TGI (HCT-116 colon) of 3.55 µM. It also gave a GI50 (HCT-15 colon) of 1040 nM, a TGI (HCT-15 colon) of 2300 nM and a GI50 (HL-60(TB) leukemia) of 1590 nM. The TGI (HL-60(TB) leukemia) was 7.08 µM, the GI50 (HOP-62 NSCLC) was 2210 nM and the TGI (HOP-62 NSCLC) was 5.63 µM. For the same molecule, the GI50 (HOP-92 NSCLC) was 1500 nM, the TGI (HOP-92 NSCLC) was 3.2 µM and the GI50 (HS 578T breast) was 2070 nM. The TGI (HS 578T breast) was 4.96 µM, the GI50 (HT29 colon) was 1890 nM and the TGI (HT29 colon) was 3.89 µM. It also gave a GI50 (IGROV1 ovarian) of 1870 nM, a TGI (IGROV1 ovarian) of 3.57 µM and a GI50 (K-562 leukemia) of 1230 nM. For the same molecule, the TGI (K-562 leukemia) was > 100 µM, the GI50 (KM12 colon) was 1600 nM and the TGI (KM12 colon) was 3.27 µM. It also gave a GI50 (LOX IMVI melanoma) of 879 nM, a TGI (LOX IMVI melanoma) of 2120 nM and a GI50 (M14 melanoma) of 1670 nM. The TGI (M14 melanoma) was 3.27 µM, the GI50 (MALME-3M melanoma) was 1570 nM and the TGI (MALME-3M melanoma) was 2960 nM. The GI50 (MCF7 breast) was 1010 nM, the TGI (MCF7 breast) was 2510 nM and the GI50 (MDA-MB-231 breast) was 1750 nM. It also gave a TGI (MDA-MB-231 breast) of 3.21 µM, a GI50 (MDA-MB-435) of 1460 nM and a TGI (MDA-MB-435) of 2920 nM. It also gave a GI50 (MDA-MB-468 breast) of 904 nM, a TGI (MDA-MB-468 breast) of 2280 nM and a GI50 (MOLT-4 leukemia) of 1830 nM. It also gave a TGI (MOLT-4 leukemia) of 8.33 µM, a GI50 (NCI-H226 lung) of 2290 nM and a TGI (NCI-H226 lung) of 6.14 µM. It also gave a GI50 (NCI-H23 lung) of 1590 nM, a TGI (NCI-H23 lung) of 2970 nM and a GI50 (NCI-H460 lung) of 1930 nM. For the same molecule, the TGI (NCI-H460 lung) was 4.59 µM, the GI50 (NCI-H522 lung) was 1250 nM and the TGI (NCI-H522 lung) was 2650 nM. The GI50 (OVCAR-3 ovarian) was 1220 nM, the TGI (OVCAR-3 ovarian) was 2540 nM and the GI50 (OVCAR-4 ovarian) was 1640 nM. It also gave a TGI (OVCAR-4 ovarian) of 3.01 µM, a GI50 (OVCAR-5 ovarian) of 1600 nM and a TGI (OVCAR-5 ovarian) of 3.02 µM. It also gave a GI50 (OVCAR-8 ovarian) of 1750 nM, a TGI (OVCAR-8 ovarian) of 3.68 µM and a GI50 (PC-3 prostate) of 2040 nM. The TGI (PC-3 prostate) was 4.37 µM, the GI50 (RPMI-8226 leukemia) was 1460 nM and the TGI (RPMI-8226 leukemia) was 4.7 µM. For the same molecule, the GI50 (RXF 393 renal) was 1320 nM, the TGI (RXF 393 renal) was 2600 nM and the GI50 (SF-268 CNS) was 2470 nM. The TGI (SF-268 CNS) was 7.06 µM, the GI50 (SF-295 CNS) was 1880 nM and the TGI (SF-295 CNS) was 4.66 µM. The GI50 (SF-539 CNS) was 1610 nM, the TGI (SF-539 CNS) was 2970 nM and the GI50 (SK-MEL-2 melanoma) was 1710 nM. The TGI (SK-MEL-2 melanoma) was 3.22 µM, the GI50 (SK-MEL-28 melanoma) was 1480 nM and the TGI (SK-MEL-28 melanoma) was 2820 nM. It also gave a GI50 (SK-MEL-5 melanoma) of 1640 nM, a TGI (SK-MEL-5 melanoma) of 3.05 µM and a GI50 (SK-OV-3 ovarian) of 5.49 µM. For the same molecule, the TGI (SK-OV-3 ovarian) was 18 µM, the GI50 (SN12C renal) was 1780 nM and the TGI (SN12C renal) was 3.51 µM. It also gave a GI50 (SNB-19 CNS) of 2740 nM, a TGI (SNB-19 CNS) of 8.65 µM and a GI50 (SNB-75 CNS) of 1820 nM. For the same molecule, the TGI (SNB-75 CNS) was 4.38 µM, the GI50 (SR leukemia) was 1650 nM and the TGI (SR leukemia) was 34.4 µM. For the same molecule, the GI50 (SW-620 colon) was 763 nM, the TGI (SW-620 colon) was 2140 nM and the GI50 (T-47D breast) was 1330 nM. It also gave a TGI (T-47D breast) of 3.06 µM, a GI50 (TK-10 renal) of 1570 nM and a TGI (TK-10 renal) of 2980 nM. The GI50 (U251 CNS) was 1560 nM, the TGI (U251 CNS) was 3.05 µM and the GI50 (UACC-257 melanoma) was 1600 nM. It also gave a TGI (UACC-257 melanoma) of 3.07 µM, a GI50 (UACC-62 melanoma) of 1610 nM and a TGI (UACC-62 melanoma) of 3.05 µM. The GI50 (UO-31 renal) was 1350 nM and the TGI (UO-31 renal) was 2640 nM.
